Where a name gives a salt, the structure may show the parent alone.
Key:
Type in all cases: biochemical
[1] = target: T1, GST-tagged recombinant full-length human Pim-2 (Homo sapiens, UniProt Q9P1W9); experiment: PIM-2 Assay (as Example A); details: averaged IC50; 4 μM ATP, 1.0 μM PIM2tide, 1.5 nM Pim-2
T1 construct: GST-tagged recombinant full-length human Pim-2; GST
Method: (§1) The assay for the determination of PIM-1 activity is based on the incorporation of [^33P]PO4 from [γ-^33P]ATP into PIM2tide substrate and capture of the radiolabeled peptide onto a Whatman P81 (phosphocellulose) filter plate. The amount of radiolabeled product is then measured by liquid scintillation counting. The final buffer conditions were as follows: 20 mM K^+MOPS, pH 7.4, 10 mM MgCl2, 0.005% Tween-20, 1 mM DTT. Assay mixtures contained 35 μM [γ-^33P]ATP (20 μCi/mL), 7.5 μM PIM2tide and 0.25 nM PIM-1 in a total volume of 50 μL. Incubations were carried out for 60 min at 22° C. and quenched with 75 μL of 200 mM H3PO4, filtered through a Whatman P81 plate and washed (1×200 μL and 5×100 μL) with 200 mM H3PO4. Fifty μL of liquid scintillation cocktail were then added per well, and the plate was counted for 30 s/well using a TopCount NXT.
(§2) Compounds were prepared at 50× the final concentration in DMSO by conducting 3-fold serial dilutions from a 500-μM intermediate dilution to give a 10-point dosing curve having a high dose of 10 μM. One-μL aliquots of these were then transferred to the assay mixtures above to give a final concentration of DMSO of 2%. A standard or reference compound was typically included on each assay plate to validate that plate. For each plate, percent of control (POC) values were calculated for each well. IC50 values were estimated from the POC values using a standard 4-parameter logistic model. The IC50 is defined as the concentration of inhibitor at which the POC equals 50 for the fitted curve.
Assay was performed as described in Example A, using 4 μM [γ-^33P]ATP (20 μCi/mL), 1.0 μM PIM2tide and 1.5 nM GST-tagged recombinant full-length human Pim-2 in place of PIM-1.

PIM-1 = PIM-1 (Homo sapiens, UniProt P11309); experiment: Enzyme PIM-1 Assay ([33P]ATP incorporation into PIM2tide, filter plate); details: averaged IC50; 35 μM ATP, 7.5 μM PIM2tide, 0.25 nM PIM-1, 60 min at 22° C.
Method: as §1, §2

recombinant rat PIM-3 = recombinant rat PIM-3 (Rattus norvegicus, UniProt O70444); experiment: PIM-3 Assay (as Example A); details: averaged IC50; 30 μM ATP, 3.75 μM PIM2tide, 0.5 nM PIM-3
Method: as §1, §2
Assay was performed as described in Example A, using 30 μM [γ-^33P]ATP (20 μCi/mL), 3.75 μM PIM2tide and 0.5 nM recombinant rat PIM-3 in place of PIM-1.

Chain of PIM-1 (P11309 whole entry, species assumed): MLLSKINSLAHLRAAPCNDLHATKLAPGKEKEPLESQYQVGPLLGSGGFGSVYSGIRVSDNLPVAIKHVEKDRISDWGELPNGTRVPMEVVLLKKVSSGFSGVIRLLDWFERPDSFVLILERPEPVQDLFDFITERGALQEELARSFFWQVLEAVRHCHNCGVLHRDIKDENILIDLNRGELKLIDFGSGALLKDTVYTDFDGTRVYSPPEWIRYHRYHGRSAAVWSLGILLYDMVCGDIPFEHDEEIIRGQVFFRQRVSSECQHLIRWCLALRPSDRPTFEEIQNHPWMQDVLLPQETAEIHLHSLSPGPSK
T1 sequence (Q9P1W9 whole entry): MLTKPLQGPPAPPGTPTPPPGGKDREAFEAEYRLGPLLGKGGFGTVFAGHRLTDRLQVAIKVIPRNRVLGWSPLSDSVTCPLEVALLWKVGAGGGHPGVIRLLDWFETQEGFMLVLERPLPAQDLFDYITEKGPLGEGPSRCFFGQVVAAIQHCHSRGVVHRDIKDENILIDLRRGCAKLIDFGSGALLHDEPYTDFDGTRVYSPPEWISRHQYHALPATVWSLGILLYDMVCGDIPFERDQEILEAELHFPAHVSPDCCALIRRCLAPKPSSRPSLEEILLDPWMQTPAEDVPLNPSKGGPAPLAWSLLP

Structure (SMILES) | IC50 [1] [nM] | IC50 (PIM-1) [nM] | IC50 (recombinant rat PIM-3) [nM]
N[C@H]1CCN([C@@H](c2ccc3nnc(-c4ccc5cccc(OCC6CC6)c5n4)n3c2)C(F)(F)F)C1 (single isomer, unassigned) [Example 10, dihydrochloride] | 306 | 1.84 | 12
N[C@H]1CCN([C@H](c2ccc3nnc(-c4ccc5cccc(OCC6CC6)c5n4)n3c2)C(F)(F)F)C1 (single isomer, unassigned) [Example 11, dihydrochloride] | 75 | 0.2 | 1.1
N[C@H]1CCN([C@@H](c2ccc3nnc(-c4ccc5ccc(C6CC6)cc5n4)n3c2)C(F)(F)F)C1 (single isomer, unassigned) [Example 12] | 51 | 0.4 | 1.1
N[C@H]1CCN([C@H](c2ccc3nnc(-c4ccc5ccc(C6CC6)cc5n4)n3c2)C(F)(F)F)C1 (single isomer, unassigned) [Example 13] | 121 | 0.31 | 1
Cn1cc(-c2ccc3ccc(-c4nnc5ccc([C@H](N6CC[C@H](N)C6)C(F)(F)F)cn45)nc3c2)cn1 (single isomer, unassigned) [Example 14, tri-hydrochloride] | 76 | 0.15 | 0.4
Cn1cc(-c2ccc3ccc(-c4nnc5ccc([C@@H](N6CC[C@H](N)C6)C(F)(F)F)cn45)nc3c2)cn1 (single isomer, unassigned) [Example 15, tri-hydrochloride] | 59 | 0.09 | 0.3
N[C@@H]1CCN([C@H](c2ccc3nnc(-c4ccc5cccc(OCC6CC6)c5n4)n3c2)C(F)(F)F)C1 (single isomer, unassigned) [Example 22] | 145 | 0.25 | 2.9
N[C@@H]1CCN([C@@H](c2ccc3nnc(-c4ccc5cccc(OCC6CC6)c5n4)n3c2)C(F)(F)F)C1 (single isomer, unassigned) [Example 23] | 412 | 2.85 | 38
CC(C)Oc1cccc2ccc(-c3nnc4ccc(C(N5C[C@@H](O)[C@H](O)C5)C(F)(F)F)cn34)nc12 (single isomer, unassigned) [Example 82] | > 100 | 1.12 | 30
CC(C)Oc1cccc2ccc(-c3nnc4ccc([C@@H](N5CC[C@@](N)(CF)C5)C(F)(F)F)cn34)nc12 (single isomer, unassigned) [Example 154, dihydrochloride] | > 100 | 0.58 | 4.2
CC(C)(C)OC(=O)N[C@@H]1CCN([C@@H](c2ccc3nnc(-c4ccc5ccc(C(=O)O)cc5n4)n3c2)C(F)(F)F)C1 [Example 85, 2-(6-((S)-1-((R)-3-(tert-butoxycarbonylamino)pyrrolidin-1-yl)-2,2,2-trifluoroethyl)-[1,2,4]triazolo[4,3-a]pyridin-3-yl)quinoline-7-carboxylic acid] | – | – | 18
COc1cc(F)cc2ccc(-c3nnc4ccc([C@@H](N5CC[C@H](N)C5)C(F)(F)F)cn34)nc12 [Example 115, (S)-1-((R)-2,2,2-trifluoro-1-(3-(6-fluoro-8-methoxyquinolin-2-yl)-[1,2,4]triazolo[4,3-a]pyridin-6-yl)ethyl)pyrrolidin-3-amine hydrochloride] | > 100 | 0.29 | –
CCOc1cc2nc(-c3nnc4ccc([C@@H](N5CC[C@H](N)C5)C(F)(F)F)cn34)ccc2cc1F [Example 133, (S)-1-((R)-1-(3-(7-ethoxy-6-fluoroquinolin-2-yl)-[1,2,4]triazolo[4,3-a]pyridin-6-yl)-2,2,2-trifluoroethyl)pyrrolidin-3-amine hydrochloride] | 77 | 0.16 | –
COCCc1cc2nc(-c3nnc4ccc([C@H](N5CC[C@](C)(N)C5)C(F)(F)F)cn34)ccc2cc1F [Example 311, (S)-3-methyl-1-((S)-2,2,2-trifluoro-1-(3-(6-fluoro-7-(2-methoxyethyl)quinolin-2-yl)-[1,2,4]triazolo[4,3-a]pyridin-6-yl)ethyl)pyrrolidin-3-amine] | 50 | – | –

From patent US8889704B2 (Array BioPharma Inc., priority 2011, dated 2014)
